# Key:
# Aspergillus fumigatus [1] = assay: Antifungal activity against Aspergillus fumigatus 231 after 24 hrs by broth microdilution method; type: functional; conditions: Aspergillus fumigatus, 231, 24 h
# Candida tropicalis [2] = assay: Antifungal activity against Candida tropicalis 156 after 48 hrs by broth microdilution method; type: functional; conditions: Candida tropicalis, 156, 48 h
# Staphylococcus aureus [3] = assay: Antibacterial activity against Staphylococcus aureus ATCC 6538 after 48 hrs by broth microdilution method; type: functional; conditions: ATCC 6538, 48 h
# Staphylococcus aureus [4] = assay: Antibacterial activity against methicillin-resistant Staphylococcus aureus HK5996/08 after 24 hrs by broth microdilution method; type: functional; conditions: HK5996/08, 24 h
# Nakaseomyces glabratus [5] = assay: Antifungal activity against Candida glabrata 20/I after 24 hrs by broth microdilution method; type: functional
# Klebsiella pneumoniae [6] = assay: Antibacterial activity against Klebsiella pneumoniae HK11750/08 after 24 hrs by broth microdilution method; type: functional; conditions: HK11750/08, 24 h
# Enterococcus sp. [7] = assay: Antibacterial activity against Enterococcus sp. HK14365/08 after 48 hrs by broth microdilution method; type: functional; conditions: HK14365/08, 48 h
# Candida tropicalis [8] = assay: Antifungal activity against Candida tropicalis 156 after 24 hrs by broth microdilution method; type: functional; conditions: Candida tropicalis, 156, 24 h
# Trichosporon asahii [9] = assay: Antifungal activity against Trichosporon asahii 1188 after 48 hrs by broth microdilution method; type: functional; conditions: Trichosporon asahii, 1188, 48 h
# [10] = system: Mycobacterium tuberculosis; assay: Antimycobacterial activity against Mycobacterium tuberculosis H37Rv CNCTC My 331/88 after 21 days by micromethod; type: functional; conditions: H37Rv CNCTC My 331/88, 504 h
# CHO-K1 = assay: Cytotoxicity against CHOK1 cells after 24 hrs by MTT assay; type: cell-based; conditions: Cricetulus griseus, CHO-K1, 24 h
# Pseudomonas aeruginosa [11] = assay: Antibacterial activity against Pseudomonas aeruginosa ATCC 9027 after 24 hrs by broth microdilution method; type: functional; conditions: ATCC 9027, 24 h
# Lichtheimia corymbifera [12] = assay: Antifungal activity against Absidia corymbifera 272 after 24 hrs by broth microdilution method; type: functional; conditions: Lichtheimia corymbifera, 272, 24 h
# Aspergillus fumigatus [13] = assay: Antifungal activity against Aspergillus fumigatus 231 after 48 hrs by broth microdilution method; type: functional; conditions: Aspergillus fumigatus, 231, 48 h
# Pichia kudriavzevii [14] = assay: Antifungal activity against Candida krusei E28 after 24 hrs by broth microdilution method; type: functional; conditions: E28, 24 h
# Mycobacterium avium [15] = assay: Antimycobacterial activity against Mycobacterium avium CNCTC My 330/80 after 21 days by micromethod; type: functional; conditions: CNCTC My 330/80, 504 h
# Escherichia coli [16] = assay: Antibacterial activity against Escherichia coli ATCC 8739 after 48 hrs by broth microdilution method; type: functional; conditions: ATCC 8739, 48 h
# Mycobacterium kansasii [17] = assay: Antimycobacterial activity against Mycobacterium kansasii isolate 6509/96 after 14 days by micromethod; type: functional; conditions: isolate 6509/96, 336 h
# Mycobacterium kansasii [18] = assay: Antimycobacterial activity against Mycobacterium kansasii isolate 6509/96 after 7 days by micromethod; type: functional; conditions: isolate 6509/96, 168 h
# Pichia kudriavzevii [19] = assay: Antifungal activity against Candida krusei E28 after 48 hrs by broth microdilution method; type: functional; conditions: E28, 48 h
# [20] = system: Staphylococcus epidermidis; assay: Antibacterial activity against Staphylococcus epidermidis HK6966/08 after 48 hrs by broth microdilution method; type: functional; conditions: HK6966/08, 48 h
# Mycobacterium avium [21] = assay: Antimycobacterial activity against Mycobacterium avium CNCTC My 330/80 after 14 days by micromethod; type: functional; conditions: CNCTC My 330/80, 336 h
# Klebsiella pneumoniae [22] = assay: Antibacterial activity against Klebsiella pneumoniae HK11750/08 after 48 hrs by broth microdilution method; type: functional; conditions: HK11750/08, 48 h
# Enterococcus sp. [23] = assay: Antibacterial activity against Enterococcus sp. HK14365/08 after 24 hrs by broth microdilution method; type: functional; conditions: HK14365/08, 24 h
# Staphylococcus aureus [24] = assay: Antibacterial activity against Staphylococcus aureus ATCC 6538 after 24 hrs by broth microdilution method; type: functional; conditions: ATCC 6538, 24 h
# Escherichia coli [25] = assay: Antibacterial activity against Escherichia coli ATCC 8739 after 24 hrs by broth microdilution method; type: functional; conditions: ATCC 8739, 24 h
# Klebsiella pneumoniae [26] = assay: Antibacterial activity against extended spectrum beta-lactamase producing Klebsiella pneumoniae HK14368/08 after 24 hrs by broth microdilution method; type: functional; conditions: HK14368/08, 24 h
# Pseudomonas aeruginosa [27] = assay: Antibacterial activity against Pseudomonas aeruginosa ATCC 9027 after 48 hrs by broth microdilution method; type: functional; conditions: ATCC 9027, 48 h
# Mycobacterium kansasii [28] = assay: Antimycobacterial activity against Mycobacterium kansasii CNCTC My 235/80 after 21 days by micromethod; type: functional; conditions: CNCTC My 235/80, 504 h
# Staphylococcus aureus [29] = assay: Antibacterial activity against methicillin-resistant Staphylococcus aureus HK5996/08 after 48 hrs by broth microdilution method; type: functional; conditions: HK5996/08, 48 h
# Mycobacterium kansasii [30] = assay: Antimycobacterial activity against Mycobacterium kansasii isolate 6509/96 after 21 days by micromethod; type: functional; conditions: isolate 6509/96, 504 h
# Lichtheimia corymbifera [31] = assay: Antifungal activity against Absidia corymbifera 272 after 48 hrs by broth microdilution method; type: functional; conditions: Lichtheimia corymbifera, 272, 48 h
# [32] = system: Trichophyton mentagrophytes; assay: Antifungal activity against Trichophyton mentagrophytes 445 after 120 hrs by broth microdilution method; type: functional; conditions: Trichophyton mentagrophytes, 445, 120 h
# Mycobacterium kansasii [33] = assay: Antimycobacterial activity against Mycobacterium kansasii CNCTC My 235/80 after 14 days by micromethod; type: functional; conditions: CNCTC My 235/80, 336 h
# [34] = system: Staphylococcus epidermidis; assay: Antibacterial activity against Staphylococcus epidermidis HK6966/08 after 24 hrs by broth microdilution method; type: functional; conditions: HK6966/08, 24 h
# Nakaseomyces glabratus [35] = assay: Antifungal activity against Candida glabrata 20/I after 48 hrs by broth microdilution method; type: functional
# Trichosporon asahii [36] = assay: Antifungal activity against Trichosporon asahii 1188 after 24 hrs by broth microdilution method; type: functional; conditions: Trichosporon asahii, 1188, 24 h
# Candida albicans [37] = assay: Antifungal activity against Candida albicans ATCC 44859 after 48 hrs by broth microdilution method; type: functional; conditions: ATCC 44859, 48 h
# [38] = system: Trichophyton mentagrophytes; assay: Antifungal activity against Trichophyton mentagrophytes 445 after 72 hrs by broth microdilution method; type: functional; conditions: Trichophyton mentagrophytes, 445, 72 h
# Candida albicans [39] = assay: Antifungal activity against Candida albicans ATCC 44859 after 24 hrs by broth microdilution method; type: functional; conditions: ATCC 44859, 24 h
# [40] = system: Mycobacterium tuberculosis; assay: Antimycobacterial activity against Mycobacterium tuberculosis H37Rv CNCTC My 331/88 after 14 days by micromethod; type: functional; conditions: H37Rv CNCTC My 331/88, 336 h
# Klebsiella pneumoniae [41] = assay: Antibacterial activity against extended spectrum beta-lactamase producing Klebsiella pneumoniae HK14368/08 after 48 hrs by broth microdilution method; type: functional; conditions: HK14368/08, 48 h
# Mycobacterium kansasii [42] = assay: Antimycobacterial activity against Mycobacterium kansasii CNCTC My 235/80 after 7 days by micromethod; type: functional; conditions: CNCTC My 235/80, 168 h
smiles,measurement,setting,value
O=[N+]([O-])c1cc(-c2nnn(Cc3ccc(Br)cc3)n2)cc([N+](=O)[O-])c1,MIC,Aspergillus fumigatus [1],> 500 µM
same,MIC,Candida tropicalis [2],> 500 µM
same,MIC,Staphylococcus aureus [3],62.5 µM
same,MIC,Staphylococcus aureus [4],> 125 µM
same,MIC,Nakaseomyces glabratus [5],> 500 µM
same,MIC,Klebsiella pneumoniae [6],> 125 µM
same,MIC,Enterococcus sp. [7],> 125 µM
same,MIC,Candida tropicalis [8],> 500 µM
same,MIC,Trichosporon asahii [9],> 500 µM
same,MIC99,[10],0.25 µM
same,IC50,CHO-K1,55 µM
same,MIC,Pseudomonas aeruginosa [11],> 125 µM
same,MIC,Lichtheimia corymbifera [12],> 500 µM
same,MIC,Aspergillus fumigatus [13],> 500 µM
same,MIC,Pichia kudriavzevii [14],> 500 µM
same,MIC99,Mycobacterium avium [15],8 µM
same,MIC,Escherichia coli [16],> 125 µM
same,MIC99,Mycobacterium kansasii [17],1 µM
same,MIC99,Mycobacterium kansasii [18],0.25 µM
same,MIC,Pichia kudriavzevii [19],> 500 µM
same,MIC,[20],31.2 µM
same,MIC99,Mycobacterium avium [21],4 µM
same,MIC,Klebsiella pneumoniae [22],> 125 µM
same,MIC,Enterococcus sp. [23],> 125 µM
same,MIC,Staphylococcus aureus [24],62.5 µM
same,MIC,Escherichia coli [25],> 125 µM
same,MIC,Klebsiella pneumoniae [26],> 125 µM
same,MIC,Pseudomonas aeruginosa [27],> 125 µM
same,MIC99,Mycobacterium kansasii [28],1 µM
same,MIC,Staphylococcus aureus [29],> 125 µM
same,MIC99,Mycobacterium kansasii [30],1 µM
same,MIC,Lichtheimia corymbifera [31],> 500 µM
same,MIC,[32],> 500 µM
same,MIC99,Mycobacterium kansasii [33],1 µM
same,MIC,[34],31.2 µM
same,MIC,Nakaseomyces glabratus [35],> 500 µM
same,MIC,Trichosporon asahii [36],> 500 µM
same,MIC,Candida albicans [37],> 500 µM
same,MIC,[38],> 500 µM
same,MIC,Candida albicans [39],> 500 µM
same,MIC99,[40],0.25 µM
same,MIC,Klebsiella pneumoniae [41],> 125 µM
same,MIC99,Mycobacterium kansasii [42],0.25 µM

# — ChEMBL document CHEMBL4011590, “Structure-activity relationship studies on 3,5-dinitrophenyl tetrazoles as antitubercular agents” (Eur J Med Chem, 2017)
